Structures can show the parent of a compound that is named as a salt.
Q: For `Cl.O=C(Cc1n[nH]c(S)n1)Nc1ccc(CCNC[C@H](O)c2ccccc2)cc1`, which melting point is on record?
A: 210 to 213 °C

Q: With `Cl.O=C(Cc1ccccn1)Nc1ccc(CCNCC(O)c2ccccc2F)cc1` (stereo not drawn) as the molecule, how does the melting point read?
A: 194 to 196 °C

Q: For `Cl.O=C(Cc1ccccn1)Nc1ccc(CCNCC(O)c2cccc(F)c2)cc1` (stereo not drawn), which melting point is on record?
A: 214 to 215 °C

Q: For `Cl.O=C(Cc1ccccn1)Nc1ccc(CCNCC(O)c2ccc(F)cc2)cc1` (stereo not drawn), which melting point is on record?
A: 223 to 225 °C

Q: Which melting point does the source give for `Cl.O=C(Cc1ccc2ccccc2n1)Nc1ccc(CCNC[C@H](O)c2ccccc2)cc1` here?
A: 234 to 235 °C

Q: Which melting point does the source give for `Cl.O=C(Cc1ccccn1)Nc1ccc(CCNC[C@H](O)c2cccc(Cl)c2)cc1` here?
A: 221 to 222 °C

Q: With `Cl.Cl.Nc1nc(C(=O)C(=O)Nc2ccc(CCNC[C@H](O)c3ccccc3)cc2)cs1` as the molecule, how does the melting point read?
A: 205 to 210 °C (dec.)

Q: With `Cl.O=C(Cc1ccccn1)Nc1ccc(OCCNC[C@H](O)c2ccccc2)cc1` as the molecule, how does the melting point read?
A: 225 to 226 °C

Q: For `Cl.Cl.O=C(Nc1ccc(CCNC[C@H](O)c2ccccc2)cc1)Nc1ccccn1`, which melting point is on record?
A: 132 to 133 °C

Q: With `Cl.Cl.Nc1nc(CC(=O)Nc2ccc(CCNC[C@H](O)c3ccccc3)cc2)ns1` as the molecule, how does the melting point read?
A: 244 to 246 °C

Q: With `CCOC(=O)Nc1nc(CC(=O)Nc2ccc(CCNC[C@H](O)c3ccccc3)cc2)ns1.Cl` as the molecule, how does the melting point read?
A: 205 to 208 °C

Q: Which melting point does the source give for `Cl.O=C(Cc1cccc(Cl)n1)Nc1ccc(CCNC[C@H](O)c2ccccc2)cc1` here?
A: 248 to 251 °C

Q: For `Cl.Cl.O=C(Cc1cn(Cc2ccccc2)cn1)Nc1ccc(CCNC[C@H](O)c2ccccc2)cc1`, which melting point is on record?
A: 139 to 141 °C

Q: Which melting point does the source give for `Cl.Cl.O=C(Cc1cn(Cc2ccccc2Cl)cn1)Nc1ccc(CCNC[C@H](O)c2ccccc2)cc1` here?
A: 140 to 143 °C

Q: With `Cl.Cl.O=C(Nc1ccc(CCNC[C@H](O)c2ccccc2)cc1)c1cccnc1` as the molecule, how does the melting point read?
A: 263 to 265 °C

Q: For `Cl.Cl.O=C(Cc1cn(Cc2cccc(Cl)c2)cn1)Nc1ccc(CCNC[C@H](O)c2ccccc2)cc1`, which melting point is on record?
A: 140 to 143 °C

Q: With `Cl.Cl.O=C(Cc1nccn1Cc1ccc(F)cc1)Nc1ccc(CCNC[C@H](O)c2ccccc2)cc1` as the molecule, how does the melting point read?
A: 230 to 235 °C

Q: With `Cl.Cl.O=C(Cc1nccn1Cc1ccc(Br)cc1)Nc1ccc(CCNC[C@H](O)c2ccccc2)cc1` as the molecule, how does the melting point read?
A: 221 to 223 °C

Q: With `Cl.Cl.O=C(Cc1nccn1Cc1ccc(I)cc1)Nc1ccc(CCNC[C@H](O)c2ccccc2)cc1` as the molecule, how does the melting point read?
A: 222 to 225 °C

Q: With `Cl.Cl.O=C(Cc1nccn1Cc1ccc(C(F)(F)F)cc1)Nc1ccc(CCNC[C@H](O)c2ccccc2)cc1` as the molecule, how does the melting point read?
A: 197 to 203 °C

Q: For `Cl.Cl.O=C(Cc1nccn1-c1ccc2ccccc2c1)Nc1ccc(CCNC[C@H](O)c2ccccc2)cc1`, which melting point is on record?
A: 208 to 214 °C

Q: Which melting point does the source give for `Cc1cnc(CC(=O)Nc2ccc(CCNC[C@H](O)c3ccccc3)cc2)n1Cc1ccc(F)cc1.Cl.Cl` here?
A: 219 to 223 °C

Q: Which melting point does the source give for `Cc1cn(Cc2ccc(F)cc2)c(CC(=O)Nc2ccc(CCNC[C@H](O)c3ccccc3)cc2)n1.Cl.Cl` here?
A: 204 to 207 °C

Q: With `Cl.O=C(Cc1nnnn1Cc1ccc(F)cc1)Nc1ccc(CCNC[C@H](O)c2ccccc2)cc1` as the molecule, how does the melting point read?
A: 225 to 228 °C

Q: With `Cl.O=C(CC1=NNN(Cc2ccc(Cl)c(Cl)c2)N1)Nc1ccc(CCNC[C@H](O)c2ccccc2)cc1` as the molecule, how does the melting point read?
A: 232 to 235 °C

Q: For `Cl.O=C(CC1=NNN(Cc2ccc(F)cc2)N1)Nc1ccc(CCNC[C@H](O)c2ccccc2)cc1`, which melting point is on record?
A: 233 to 235 °C

Q: With `Cl.Cl.O=C(Cc1nc[nH]n1)Nc1ccc(CCNC[C@H](O)c2ccccc2)cc1` as the molecule, how does the melting point read?
A: 221 to 224 °C

Q: With `Cl.Cl.O=C(Cc1n[nH]c(SCc2ccccc2)n1)Nc1ccc(CCNC[C@H](O)c2ccccc2)cc1` as the molecule, how does the melting point read?
A: 222 to 224 °C

Q: For `CC(=O)Nc1nc(CC(=O)Nc2ccc(CCNC[C@H](O)c3ccccc3)cc2)cs1.Cl`, which melting point is on record?
A: 242 to 245 °C

Q: With `CS(=O)(=O)Nc1nc(CC(=O)Nc2ccc(CCNC[C@H](O)c3ccccc3)cc2)cs1.Cl` as the molecule, how does the melting point read?
A: 252 to 256 °C

Q: For `Cl.Cl.N=C(N)Nc1nc(CC(=O)Nc2ccc(CCNC[C@H](O)c3ccccc3)cc2)cs1`, which melting point is on record?
A: > 230 °C (dec.)

Q: With `Cl.O=C(Cc1nccn1Cc1ccc([N+](=O)[O-])cc1)Nc1ccc(CCNC[C@H](O)c2ccccc2)cc1` as the molecule, how does the melting point read?
A: 237 to 243 °C

Q: For `Cl.Cl.O=C(Cc1nc2ccccc2s1)Nc1ccc(CCNC[C@H](O)c2ccccc2)cc1`, which melting point is on record?
A: 228 to 233 °C (dec.)

Q: For `Cl.Cl.O=C(Cc1csc2nccn12)Nc1ccc(CCNC[C@H](O)c2ccccc2)cc1`, which melting point is on record?
A: 161 to 162 °C

Q: For `Cl.Cl.O=C(Cc1nccn1Cc1c(F)ccc(F)c1F)Nc1ccc(CCNC[C@H](O)c2ccccc2)cc1`, which melting point is on record?
A: 213 to 217 °C

Q: With `Cl.Cl.O=C(Cc1nccn1Cc1cc(F)c(F)c(F)c1)Nc1ccc(CCNC[C@H](O)c2ccccc2)cc1` as the molecule, how does the melting point read?
A: 209 to 213 °C

Q: For `Cl.Cl.O=C(Cc1nccn1Cc1c(F)c(F)c(F)c(F)c1F)Nc1ccc(CCNC[C@H](O)c2ccccc2)cc1`, which melting point is on record?
A: 190 to 193 °C

Q: For `Cl.Cl.O=C(Cc1nccn1Cc1cccc(I)c1)Nc1ccc(CCNC[C@H](O)c2ccccc2)cc1`, which melting point is on record?
A: 233 to 234 °C

Q: Which melting point does the source give for `Cl.Cl.Cl.O=C(Cc1nccn1-c1ccc2ccccc2n1)Nc1ccc(CCNC[C@H](O)c2ccccc2)cc1` here?
A: 162 to 165 °C

Q: With `Cl.Cl.O=C(Cc1ncc[nH]1)Nc1ccc(CCNC[C@H](O)c2ccccc2)cc1` as the molecule, how does the melting point read?
A: 203 to 207 °C

Q: With `Cl.O=C(Cn1cccn1)Nc1ccc(CCNC[C@H](O)c2ccccc2)cc1` as the molecule, how does the melting point read?
A: 229 to 232 °C

Q: With `Cl.Cl.O=C(Cn1cncn1)Nc1ccc(CCNC[C@H](O)c2ccccc2)cc1` as the molecule, how does the melting point read?
A: 237 to 240 °C

Q: Which melting point does the source give for `Cl.O=C(Cc1cccnc1)Nc1ccc(CCNC[C@H](O)c2ccccc2)cc1` here?
A: 236 to 238 °C

Q: Which melting point does the source give for `Cl.O=C(Cc1ccncc1)Nc1ccc(CCNC[C@H](O)c2ccccc2)cc1` here?
A: 195 to 198 °C

Q: Which melting point does the source give for `Cl.O=C(CCc1ccccn1)Nc1ccc(CCNC[C@H](O)c2ccccc2)cc1` here?
A: 202 to 204 °C

Q: For `Cl.O=C(Cc1nnn[nH]1)Nc1ccc(CCNC[C@H](O)c2ccccc2)cc1`, which melting point is on record?
A: 259 to 261 °C

Q: Which melting point does the source give for `Cc1cccnc1CC(=O)Nc1ccc(CCNC[C@H](O)c2ccccc2)cc1.Cl` here?
A: 216 to 217 °C

Q: With `O=C(Nc1ccc(CCNCC(O)c2ccccc2)cc1)c1ccccn1` (stereo not drawn) (as salt: hydrochloride) as the molecule, how does the melting point read?
A: 223 to 225 °C

Q: For `O=C(Cc1nnnn1Cc1ccc(Cl)c(Cl)c1)Nc1ccc(CCNCC(O)c2ccccc2)cc1` (stereo not drawn) (as salt: hydrochloride), which melting point is on record?
A: 240 to 242 °C

Q: For `Nc1cccc(CC(=O)Nc2ccc(CCNCC(O)c3ccccc3)cc2)n1` (stereo not drawn) (as salt: hydrochloride), which melting point is on record?
A: 150 to 152 °C

Q: With `O=C(Cc1ccccn1)Nc1ccc(CCNCC(O)c2ccccc2)cc1` (stereo not drawn) (as salt: hydrochloride) as the molecule, how does the melting point read?
A: 223 to 224 °C

Q: Which melting point does the source give for `O=C(Cc1cnccn1)Nc1ccc(CCNCC(O)c2ccccc2)cc1` (stereo not drawn) (as salt: hydrochloride) here?
A: 236 to 238 °C

Q: Which melting point does the source give for `O=C(Cc1nccn1Cc1ccc(Cl)cc1)Nc1ccc(CCNC[C@H](O)c2ccccc2)cc1` (as salt: hydrochloride) [Example 23, (R)-2-[1-(4-Chlorobenzyl)-1H-imidazol-2-yl]-4′-[2-[(2-hydroxy-2-phenylethyl)amino]ethyl]acetanilide dihydrochloride] here?
A: 203 to 209 °C

Q: For `O=C(Cc1ncccn1)Nc1ccc(CCNC[C@H](O)c2ccccc2)cc1` (as salt: hydrochloride) [Example 104, (R)-4′-[2-[(2-hydroxy-2-phenylethyl)amino]ethyl]-2-(2-pyrimidinyl]acetanilide hydrochloride], which melting point is on record?
A: 208 to 210 °C

Q: For `Cl.O=C(Cc1cccc(OCc2ccccc2)n1)Nc1ccc(CCNC[C@H](O)c2ccccc2)cc1` [16], which melting point is on record?
A: 237 to 238 °C

Q: With `Cl.O=C(Cc1cccc(OCc2ccccc2)n1)Nc1ccc(CCNC[C@H](O)c2ccccc2)cc1` [60] as the molecule, how does the melting point read?
A: 214 to 216 °C

Q: Which melting point does the source give for `O=C(Cc1nc2ccccc2[nH]1)Nc1ccc(CCNC[C@H](O)c2ccccc2)cc1` [Example 91, (R)-2-(1H-benzimidazol-2-yl)-4′-[2-[(2-hydroxy-2-phenylethyl)amino]-ethyl]acetanilide] here?
A: 158 to 165 °C
